One assay addresses T1, CMP-KDO synthetase (CKS) (Escherichia coli, UniProt P04951).
T1 construct: made in house
The experiment in a line: CKS Assay (enzyme inhibition). The note with it: percent of a control without inhibitor, read-out: Percentage of inhibition of CKS. Type of assay: biochemical. Here is the method: (§1) Potential inhibitors were tested for inhibitory action against two key enzymes involved in the biosynthesis of bacterial LPS.
I. CMP-KDO synthetase (CKS) which catalyses the reaction [drawing 20]
The CKS enzyme was prepared essentially as described by Osborne [J-.Biol.Chem. […]] and the enzyme assayed by the method of Ghalambor and Heath (J.Biol.Chem. 241 (1966) 3216-3221).
(§2) Inhibition of CKS and KLT enzymes by compound I is given in Table I. The inhibitory action is expressed in percent of a control without inhibitor run simultaneously.

Assay [1] concerns the target CMP-KDO lipid A transferase (KLT) (Salmonella typhimurium, UniProt Q8ZL49). The assay can be described thus: KLT Assay (incorporation of [14-C]-labelled CMP-KDO into acid-insoluble product; CMP-KDO generated in situ by added CKS). It counts as biochemical. The note with it: percent of a control without inhibitor, read-out: Percentage of inhibition of KLT. Here is the method: as §1
CMP-KDO lipid A transferase (KLT) which transfers CMP-KDO to an intermediate in the biosynthesis of LPS known as lipid A precursor [drawing 21]
The KLT enzyme was purified essentially by the method of Osborne (J.Biol.Chem. 252 (1977) 4895-4903). KLT activity was determined by monitoring the incorporation of [14-C]-labelled CMP-KDO into acid- insoluble product. The radio labelled CMP-KDO was generated in situ from CTP and [14-C]-KDO by the action of added CKS enzyme. The incubation mixture contained CKS enzyme, KLT enzyme, 110 mM Tris buffer pH 8.0, 10.6 mM NaCl, 0.5 mM CTP, 0.4%, Alfonic 1012-6 (Trade name), 0.16 mM [14-c] KDO and lipid A precursor. The final reaction volume was 150 µl. The mixture was incubated at 25°C for 15 min., when 50 µl was transferred to a filter paper circle (Munktell No. 5,24 mm.) and then washed copiously with 10% TCA. The radioactivity adsorbed on the paper circle, which represents radiolabelled KDO bound to precursor was determined using liquid scintillation counting.
as §2

T1 sequence (P04951 whole entry): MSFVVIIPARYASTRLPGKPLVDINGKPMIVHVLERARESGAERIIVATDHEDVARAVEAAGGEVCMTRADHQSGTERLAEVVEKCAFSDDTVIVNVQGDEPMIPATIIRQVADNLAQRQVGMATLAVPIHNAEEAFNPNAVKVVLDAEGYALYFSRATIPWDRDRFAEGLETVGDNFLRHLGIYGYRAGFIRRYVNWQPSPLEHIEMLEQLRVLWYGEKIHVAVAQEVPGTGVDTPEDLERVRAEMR
Chain of CMP-KDO lipid A transferase (KLT) (Q8ZL49 entry or part of it): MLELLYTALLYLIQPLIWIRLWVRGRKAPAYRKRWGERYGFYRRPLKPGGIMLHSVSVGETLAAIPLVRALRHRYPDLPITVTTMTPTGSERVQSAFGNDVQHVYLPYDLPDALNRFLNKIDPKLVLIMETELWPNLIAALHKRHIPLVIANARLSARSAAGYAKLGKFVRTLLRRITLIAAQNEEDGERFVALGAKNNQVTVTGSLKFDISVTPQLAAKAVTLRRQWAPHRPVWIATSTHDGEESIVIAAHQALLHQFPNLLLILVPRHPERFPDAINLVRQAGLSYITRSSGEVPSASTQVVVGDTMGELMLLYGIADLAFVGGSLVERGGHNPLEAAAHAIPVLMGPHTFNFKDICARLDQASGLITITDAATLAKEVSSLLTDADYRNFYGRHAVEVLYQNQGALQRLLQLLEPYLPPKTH

As a reminder, the inhibition is the relative decrease from the control value, in per cent. `O=C(O)[C@@H]1C[C@@H](O)[C@@H](O)[C@@H]([C@H](O)CO)O1` [compound I, ammonium 2,6-anhydro-3-deoxy-D- -glycero-D -talo-octonate]: the inhibition at 2.5 µM stood at 8% at CMP-KDO synthetase (CKS) (0.0025 mM compound) and 24% in assay [1] (0.0025 mM compound). Further, the inhibition at 10 µM was 36% on CMP-KDO synthetase (CKS) (0.01 mM compound) and 57% in assay [1] (0.01 mM compound). Besides, the inhibition at 40 µM was 68% on CMP-KDO synthetase (CKS) (0.04 mM compound) and 81% in assay [1] (0.04 mM compound). For the same compound, the inhibition at 160 µM amounted to 90% on CMP-KDO synthetase (CKS) (0.16 mM compound) and 89% in assay [1] (0.16 mM compound). In addition, the inhibition at 640 µM (on CMP-KDO synthetase (CKS) (0.64 mM compound); in assay [1] (0.64 mM compound)) was 98% each time. The inhibition at 2540 µM at CMP-KDO synthetase (CKS) (2.54 mM compound) was determined as 99%. The inhibition at 10160 µM on CMP-KDO synthetase (CKS) (10.16 mM compound) is 98%. The inhibition at 0.625 µM in assay [1] (0.000625 mM compound) was found to be 5%.
